Values of other authors, collected in patent US9168307B2, “Mitochondrial-targeted cationic nanoparticles comprising CaMKII inhibitors and uses thereof for treating and preventing diseases and disorders associated with CaMKII activity” (University of Iowa Research Foundation, priority 2012, dated 2015).

Tested on: CaMKII
Conditions: starting point for dose response curve

IC50: 100 nM
Sequence: KRPPKLGQIGRAKRVVIEDDR (SEQ ID NO:1) [peptide]
